Data reported in article PMC9851200, “Multiparameter phenotypic screening for endogenous TFEB and TFE3 translocation identifies novel chemical series modulating lysosome function” (Autophagy, 2022).

Key:
Type in all cases: binding
[1] = biological target: kinases (KINOMEscan panel) (Homo sapiens, UniProt P43405); settings: SYK; NEW KINOMEscan
[2] = biological target: kinases (KINOMEscan panel) (Homo sapiens, UniProt P41240); settings: kinase CSK; NEW KINOMEscan
[3] = biological target: kinases (KINOMEscan panel) (Homo sapiens, UniProt Q99755); settings: NEW KINOMEscan
kinases (KINOMEscan panel) (Homo sapiens, UniProt Q99755), sequence (Q99755 whole entry): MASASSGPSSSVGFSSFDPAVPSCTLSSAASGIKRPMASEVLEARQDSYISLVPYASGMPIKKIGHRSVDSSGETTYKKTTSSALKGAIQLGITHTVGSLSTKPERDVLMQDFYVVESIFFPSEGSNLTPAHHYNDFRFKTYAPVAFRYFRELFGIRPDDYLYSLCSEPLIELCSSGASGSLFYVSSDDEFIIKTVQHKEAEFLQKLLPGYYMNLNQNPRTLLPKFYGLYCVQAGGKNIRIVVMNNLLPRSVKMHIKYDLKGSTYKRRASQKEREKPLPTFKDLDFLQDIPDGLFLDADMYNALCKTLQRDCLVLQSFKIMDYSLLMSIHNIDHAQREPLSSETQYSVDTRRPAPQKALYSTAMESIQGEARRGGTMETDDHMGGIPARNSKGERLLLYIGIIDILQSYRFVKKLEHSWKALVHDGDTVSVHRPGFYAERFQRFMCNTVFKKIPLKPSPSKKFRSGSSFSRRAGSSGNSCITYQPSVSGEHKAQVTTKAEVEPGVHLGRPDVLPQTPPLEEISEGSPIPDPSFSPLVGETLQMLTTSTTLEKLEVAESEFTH

[4] = biological target: T1, kinases (KINOMEscan panel) (Homo sapiens, UniProt Q96L34); settings: kinase MARK4; NEW KINOMEscan
T1 sequence (Q96L34 1-752): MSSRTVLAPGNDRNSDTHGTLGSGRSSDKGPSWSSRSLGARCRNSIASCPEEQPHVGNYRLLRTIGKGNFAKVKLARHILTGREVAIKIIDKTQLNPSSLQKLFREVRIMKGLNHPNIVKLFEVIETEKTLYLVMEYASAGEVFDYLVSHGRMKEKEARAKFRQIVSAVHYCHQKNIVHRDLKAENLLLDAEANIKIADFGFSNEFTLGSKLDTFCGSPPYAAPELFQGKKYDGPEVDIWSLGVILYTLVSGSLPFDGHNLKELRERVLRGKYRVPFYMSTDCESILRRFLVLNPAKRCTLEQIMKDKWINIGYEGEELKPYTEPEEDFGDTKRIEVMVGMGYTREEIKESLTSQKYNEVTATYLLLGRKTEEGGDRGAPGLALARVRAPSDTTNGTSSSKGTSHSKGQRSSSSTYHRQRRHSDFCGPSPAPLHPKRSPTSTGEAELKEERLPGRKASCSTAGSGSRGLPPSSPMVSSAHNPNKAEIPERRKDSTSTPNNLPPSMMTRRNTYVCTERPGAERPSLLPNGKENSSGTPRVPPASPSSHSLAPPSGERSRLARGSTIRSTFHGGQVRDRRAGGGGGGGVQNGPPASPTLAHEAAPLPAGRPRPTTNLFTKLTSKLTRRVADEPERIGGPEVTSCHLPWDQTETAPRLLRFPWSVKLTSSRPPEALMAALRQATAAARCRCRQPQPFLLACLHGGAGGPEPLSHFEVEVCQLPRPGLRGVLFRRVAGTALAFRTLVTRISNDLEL

[5] = biological target: kinases (KINOMEscan panel) (Homo sapiens, UniProt P27448); settings: MARK3; NEW KINOMEscan
kinases (KINOMEscan panel) (Homo sapiens, UniProt P27448), sequence (P27448 whole entry): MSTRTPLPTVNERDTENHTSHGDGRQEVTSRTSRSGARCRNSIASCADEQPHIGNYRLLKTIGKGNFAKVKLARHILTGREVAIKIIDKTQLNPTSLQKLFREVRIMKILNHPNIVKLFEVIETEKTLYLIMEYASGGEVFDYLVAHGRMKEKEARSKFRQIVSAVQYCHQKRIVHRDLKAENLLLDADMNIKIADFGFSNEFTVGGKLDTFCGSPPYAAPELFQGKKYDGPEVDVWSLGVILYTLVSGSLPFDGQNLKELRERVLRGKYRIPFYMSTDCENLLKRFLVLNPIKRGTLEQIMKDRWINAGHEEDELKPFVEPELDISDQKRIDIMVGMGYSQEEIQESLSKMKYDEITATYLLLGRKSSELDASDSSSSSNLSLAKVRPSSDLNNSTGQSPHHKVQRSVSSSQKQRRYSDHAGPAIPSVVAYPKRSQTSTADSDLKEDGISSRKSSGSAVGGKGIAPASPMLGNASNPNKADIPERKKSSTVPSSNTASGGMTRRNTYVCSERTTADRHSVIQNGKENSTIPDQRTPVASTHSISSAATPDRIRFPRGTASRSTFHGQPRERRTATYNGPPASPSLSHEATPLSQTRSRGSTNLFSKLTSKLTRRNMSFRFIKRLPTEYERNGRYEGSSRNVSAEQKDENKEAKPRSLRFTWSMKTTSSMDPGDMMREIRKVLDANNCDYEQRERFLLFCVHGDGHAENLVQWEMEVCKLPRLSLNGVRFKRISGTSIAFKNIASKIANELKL

[6] = biological target: kinases (KINOMEscan panel) (Homo sapiens, UniProt P36888, D835H); settings: kinase FLT3(D835H); NEW KINOMEscan
[7] = biological target: kinases (KINOMEscan panel) (Homo sapiens, UniProt P00533); settings: kinase EGFR; NEW KINOMEscan
kinases (KINOMEscan panel) (Homo sapiens, UniProt P00533), sequence (P00533 25-1210): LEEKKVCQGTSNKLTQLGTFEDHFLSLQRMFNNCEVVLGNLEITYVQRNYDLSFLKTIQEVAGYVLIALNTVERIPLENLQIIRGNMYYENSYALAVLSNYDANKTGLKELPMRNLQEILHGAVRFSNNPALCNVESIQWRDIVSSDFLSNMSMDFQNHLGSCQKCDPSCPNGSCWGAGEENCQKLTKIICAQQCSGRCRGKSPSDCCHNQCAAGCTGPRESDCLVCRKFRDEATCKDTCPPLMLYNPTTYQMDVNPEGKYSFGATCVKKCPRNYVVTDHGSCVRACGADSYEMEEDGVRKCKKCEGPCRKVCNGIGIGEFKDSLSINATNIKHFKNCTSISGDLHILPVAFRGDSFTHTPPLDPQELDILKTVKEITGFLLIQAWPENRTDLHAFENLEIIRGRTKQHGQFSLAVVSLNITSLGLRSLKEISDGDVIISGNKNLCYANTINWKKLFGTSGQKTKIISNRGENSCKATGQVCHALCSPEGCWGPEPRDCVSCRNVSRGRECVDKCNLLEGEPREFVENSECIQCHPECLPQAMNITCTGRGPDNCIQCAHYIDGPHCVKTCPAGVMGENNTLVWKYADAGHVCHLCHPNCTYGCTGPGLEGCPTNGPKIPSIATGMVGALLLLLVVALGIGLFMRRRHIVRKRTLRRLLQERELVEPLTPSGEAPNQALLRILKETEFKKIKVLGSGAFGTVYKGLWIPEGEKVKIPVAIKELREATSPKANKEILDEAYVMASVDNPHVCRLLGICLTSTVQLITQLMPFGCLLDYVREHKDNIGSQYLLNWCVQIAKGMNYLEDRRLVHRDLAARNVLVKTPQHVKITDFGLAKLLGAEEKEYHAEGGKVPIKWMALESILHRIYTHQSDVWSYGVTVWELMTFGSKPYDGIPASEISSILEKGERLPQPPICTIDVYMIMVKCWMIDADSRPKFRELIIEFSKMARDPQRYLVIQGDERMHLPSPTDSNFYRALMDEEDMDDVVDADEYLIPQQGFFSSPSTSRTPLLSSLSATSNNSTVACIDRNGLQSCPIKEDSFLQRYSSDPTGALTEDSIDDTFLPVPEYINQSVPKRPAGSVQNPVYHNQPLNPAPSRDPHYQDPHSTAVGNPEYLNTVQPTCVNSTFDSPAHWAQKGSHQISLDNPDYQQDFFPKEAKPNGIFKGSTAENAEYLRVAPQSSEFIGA

[8] = biological target: kinases (KINOMEscan panel) (Homo sapiens, UniProt Q05655); settings: kinase PRKCD; NEW KINOMEscan
kinases (KINOMEscan panel) (Homo sapiens, UniProt Q05655), sequence (Q05655 whole entry): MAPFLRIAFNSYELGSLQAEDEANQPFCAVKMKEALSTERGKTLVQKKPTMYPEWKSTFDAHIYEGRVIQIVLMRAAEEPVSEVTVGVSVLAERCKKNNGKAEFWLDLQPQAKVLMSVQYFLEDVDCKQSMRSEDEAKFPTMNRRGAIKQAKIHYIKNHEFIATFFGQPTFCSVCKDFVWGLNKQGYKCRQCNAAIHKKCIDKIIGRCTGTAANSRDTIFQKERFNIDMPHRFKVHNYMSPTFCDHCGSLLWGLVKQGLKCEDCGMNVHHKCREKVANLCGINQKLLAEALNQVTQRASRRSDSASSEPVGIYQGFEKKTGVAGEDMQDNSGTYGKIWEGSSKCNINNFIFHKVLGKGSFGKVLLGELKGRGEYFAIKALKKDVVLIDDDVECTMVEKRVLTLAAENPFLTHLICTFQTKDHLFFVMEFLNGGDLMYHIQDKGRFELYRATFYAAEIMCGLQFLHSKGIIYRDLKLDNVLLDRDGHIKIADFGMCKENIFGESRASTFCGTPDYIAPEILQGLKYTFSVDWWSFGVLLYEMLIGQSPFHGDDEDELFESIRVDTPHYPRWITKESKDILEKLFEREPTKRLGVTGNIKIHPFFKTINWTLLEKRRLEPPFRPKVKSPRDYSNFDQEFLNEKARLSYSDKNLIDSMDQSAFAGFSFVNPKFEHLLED

[9] = biological target: kinases (KINOMEscan panel) (Homo sapiens, UniProt Q13523); settings: PRPF4B; NEW KINOMEscan
[10] = biological target: T2, kinases (KINOMEscan panel) (Homo sapiens, UniProt Q13470); settings: TNK1; NEW KINOMEscan
T2 sequence (Q13470 1-666): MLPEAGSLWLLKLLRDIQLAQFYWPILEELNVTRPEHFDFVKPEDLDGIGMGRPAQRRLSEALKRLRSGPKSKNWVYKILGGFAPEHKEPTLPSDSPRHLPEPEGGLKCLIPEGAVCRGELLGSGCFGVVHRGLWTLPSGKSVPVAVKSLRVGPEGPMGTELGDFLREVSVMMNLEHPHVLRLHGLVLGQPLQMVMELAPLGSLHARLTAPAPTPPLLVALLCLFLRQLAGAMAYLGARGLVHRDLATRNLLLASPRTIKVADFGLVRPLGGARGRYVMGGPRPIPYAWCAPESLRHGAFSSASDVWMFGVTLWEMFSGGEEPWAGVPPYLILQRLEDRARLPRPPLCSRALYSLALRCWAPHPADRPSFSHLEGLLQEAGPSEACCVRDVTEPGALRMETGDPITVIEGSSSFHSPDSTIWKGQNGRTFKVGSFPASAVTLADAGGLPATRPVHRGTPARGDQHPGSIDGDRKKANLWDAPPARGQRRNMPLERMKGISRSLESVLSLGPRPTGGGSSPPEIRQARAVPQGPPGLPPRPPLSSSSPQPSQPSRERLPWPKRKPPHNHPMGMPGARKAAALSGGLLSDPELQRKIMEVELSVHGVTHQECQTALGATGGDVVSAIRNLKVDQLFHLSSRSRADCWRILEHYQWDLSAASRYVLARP

[11] = biological target: kinases (KINOMEscan panel) (Homo sapiens, UniProt P11362); settings: kinase FGFR1; NEW KINOMEscan
kinases (KINOMEscan panel) (Homo sapiens, UniProt P11362), sequence (P11362 22-822): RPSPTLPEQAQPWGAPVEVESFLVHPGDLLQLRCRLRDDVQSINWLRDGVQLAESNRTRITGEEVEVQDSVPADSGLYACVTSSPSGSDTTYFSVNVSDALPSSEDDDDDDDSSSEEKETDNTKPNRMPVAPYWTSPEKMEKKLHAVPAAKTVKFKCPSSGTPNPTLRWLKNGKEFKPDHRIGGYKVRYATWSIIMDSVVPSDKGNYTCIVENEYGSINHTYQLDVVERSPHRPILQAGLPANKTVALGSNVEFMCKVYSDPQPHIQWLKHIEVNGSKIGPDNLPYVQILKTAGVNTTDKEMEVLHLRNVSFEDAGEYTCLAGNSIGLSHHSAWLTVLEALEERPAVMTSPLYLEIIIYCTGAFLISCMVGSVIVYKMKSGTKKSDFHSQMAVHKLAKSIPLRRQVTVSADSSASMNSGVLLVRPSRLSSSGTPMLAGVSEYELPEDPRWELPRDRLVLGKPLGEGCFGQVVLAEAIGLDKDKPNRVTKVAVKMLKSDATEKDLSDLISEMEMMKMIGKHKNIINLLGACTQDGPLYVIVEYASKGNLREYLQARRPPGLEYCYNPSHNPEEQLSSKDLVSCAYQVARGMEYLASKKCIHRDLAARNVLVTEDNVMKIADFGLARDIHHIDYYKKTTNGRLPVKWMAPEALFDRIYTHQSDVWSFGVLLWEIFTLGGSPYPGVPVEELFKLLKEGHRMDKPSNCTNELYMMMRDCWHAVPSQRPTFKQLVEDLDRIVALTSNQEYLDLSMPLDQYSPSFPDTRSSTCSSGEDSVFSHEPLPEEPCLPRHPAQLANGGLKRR

[12] = biological target: T3, kinases (KINOMEscan panel) (Homo sapiens, UniProt Q96BR1); settings: kinase SGK3; NEW KINOMEscan
T3 sequence (Q96BR1 1-496): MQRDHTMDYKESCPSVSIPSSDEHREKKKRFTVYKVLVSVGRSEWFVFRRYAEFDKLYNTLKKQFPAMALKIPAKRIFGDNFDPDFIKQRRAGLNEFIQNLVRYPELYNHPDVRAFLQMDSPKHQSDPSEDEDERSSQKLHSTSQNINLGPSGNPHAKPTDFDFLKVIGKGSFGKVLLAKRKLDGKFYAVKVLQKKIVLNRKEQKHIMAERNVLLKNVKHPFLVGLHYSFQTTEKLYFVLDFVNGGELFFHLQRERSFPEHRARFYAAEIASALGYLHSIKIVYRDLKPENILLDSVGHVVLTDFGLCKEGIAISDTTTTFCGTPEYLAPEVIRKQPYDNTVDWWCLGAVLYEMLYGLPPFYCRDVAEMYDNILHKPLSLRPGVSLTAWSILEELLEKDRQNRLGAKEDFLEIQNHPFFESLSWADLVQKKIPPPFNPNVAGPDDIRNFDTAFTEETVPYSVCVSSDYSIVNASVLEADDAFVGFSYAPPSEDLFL

[13] = biological target: kinases (KINOMEscan panel) (Homo sapiens, UniProt Q96RR4); settings: CAMKK2; NEW KINOMEscan
kinases (KINOMEscan panel) (Homo sapiens, UniProt Q96RR4), sequence (Q96RR4 whole entry): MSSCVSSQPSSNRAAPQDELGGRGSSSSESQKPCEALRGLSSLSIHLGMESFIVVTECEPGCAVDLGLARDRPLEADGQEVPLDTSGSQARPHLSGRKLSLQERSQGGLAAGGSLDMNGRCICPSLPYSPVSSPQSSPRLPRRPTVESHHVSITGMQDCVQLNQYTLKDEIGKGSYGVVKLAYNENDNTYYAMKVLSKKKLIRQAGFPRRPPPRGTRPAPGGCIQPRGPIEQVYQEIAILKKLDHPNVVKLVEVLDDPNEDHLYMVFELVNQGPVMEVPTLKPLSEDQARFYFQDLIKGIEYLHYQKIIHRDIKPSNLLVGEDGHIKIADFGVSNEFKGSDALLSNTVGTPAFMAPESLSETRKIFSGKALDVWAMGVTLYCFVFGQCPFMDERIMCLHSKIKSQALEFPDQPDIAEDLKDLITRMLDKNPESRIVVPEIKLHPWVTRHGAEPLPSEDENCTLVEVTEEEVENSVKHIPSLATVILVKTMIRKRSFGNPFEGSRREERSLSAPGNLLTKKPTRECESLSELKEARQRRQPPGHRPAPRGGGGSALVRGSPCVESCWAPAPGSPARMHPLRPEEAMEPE

kinases (KINOMEscan panel) (Homo sapiens, UniProt P41240), sequence (P41240 whole entry): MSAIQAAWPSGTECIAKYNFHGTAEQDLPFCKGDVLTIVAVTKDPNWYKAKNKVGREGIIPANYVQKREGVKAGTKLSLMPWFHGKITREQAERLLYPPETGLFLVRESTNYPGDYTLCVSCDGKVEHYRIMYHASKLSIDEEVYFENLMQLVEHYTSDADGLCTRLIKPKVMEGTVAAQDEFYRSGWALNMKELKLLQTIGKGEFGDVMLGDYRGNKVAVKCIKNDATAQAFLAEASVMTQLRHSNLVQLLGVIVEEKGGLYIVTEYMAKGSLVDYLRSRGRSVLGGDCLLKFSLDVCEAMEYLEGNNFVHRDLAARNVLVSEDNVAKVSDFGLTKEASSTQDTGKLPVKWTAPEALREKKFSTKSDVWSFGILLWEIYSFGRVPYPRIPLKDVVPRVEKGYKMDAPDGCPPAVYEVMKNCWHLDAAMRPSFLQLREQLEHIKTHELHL

Compound | KINOMEscan SYK [1] | KINOMEscan CSK [2] | KINOMEscan PIP5K1A [3] | KINOMEscan MARK4 [4] | KINOMEscan MARK3 [5] | KINOMEscan FLT3(D835H) [6] | KINOMEscan EGFR [7] | KINOMEscan PRKCD [8] | KINOMEscan PRPF4B [9] | KINOMEscan TNK1 [10] | KINOMEscan FGFR1 [11] | KINOMEscan SGK3 [12] | KINOMEscan CAMKK2 [13]
Cc1cccc(-c2nc(Nc3ccc4nn(C)cc4c3)c3ccccc3n2)n1 [NK167] | 0 | 6 | 49 | 34 | 0 | 0 | 0 | 21 | 0 | 0 | 15 | 0 | 6
Cc1cccc(-c2nc(N(C)c3ccc4ncsc4c3)c3ccccc3n2)n1 [NK-161] | 6 | 0 | 52 | 16 | 0 | 4 | 1 | 16 | 0 | 7 | 10 | 13 | 9
